# Experimental data: patent US11071721B2, “Bicyclic amide compounds and methods of use thereof” (Genentech, Inc., priority 2016, dated 2021)
# Target: human RIP1 kinase domain (2-375) (Homo sapiens (Human), UniProt Q13546)
# Experiment: RIP1 kinase inhibition assay (Transcreener ADP biochemical enzyme assay)
# Settings: Ki app (Morrison tight-binding fit); 50 nM enzyme, 50 uM ATP, 2 hours incubation, fluorescence polarization
# Description: RIP1 Kinase Inhibition Assays (Biochemical Assay):
# The compounds of the present invention were tested for their capacity to inhibit RIP K activity as described below.
# Enzyme assay: The ability of the receptor interacting protein kinase (RIPK1) to catalyze the hydrolysis of adenosine-5′-triphosphate (ATP) is monitored using the Transcreener ADP (adenosine-5′-diphosphate) assay (BellBrook Labs). Purified human RIP1 kinase domain (2-375) (50 nM) derived from a baculovirus-infected insect cell expression system is incubated with test compounds for 2 hours in 50 mM Hepes buffer (pH 7.5) containing 30 mM MgCl2, 1 mM dithiothreitol, 50 uM ATP, 0.002% Brij-35, and 0.5% dimethyl sulfoxide (DMSO). Reactions are quenched by the addition of 1× Bell Brooks Stop buffer B (20 mM Hepes (ph7.5), 40 mM ethylenediaminetetraacetic acid and 0.02% Brij-35) containing an additional 12 mM EDTA and 55 ug/mL ADP2 antibody and 4 nM ADP-AlexaFluor® 633 tracer. The tracer bound to the antibody is displaced by the ADP generated during the RIP1K reaction, which causes a decrease in fluorescence polarization that is measured by laser excitation at 633 nm with a FP microplate reader M1000. Fractional activity was plotted against test article concentration. Using Genedata Screener software (Genedata; Basel, Switzerland), the data were fit to the tight-binding apparent inhibition constant (Ki^app) Morrison equation [Williams, J. W. and Morrison, J. F. (1979) The kinetics of reversible tight-binding inhibition. Methods Enzymol 63: 437-67]. The following equation was used to calculate fractional activity and Ki^app:
# [formula] where [E]T and [I]T are the total concentrations of active enzyme and test article, respectively.
# Sequence of human RIP1 kinase domain (2-375) (Q13546 2-375): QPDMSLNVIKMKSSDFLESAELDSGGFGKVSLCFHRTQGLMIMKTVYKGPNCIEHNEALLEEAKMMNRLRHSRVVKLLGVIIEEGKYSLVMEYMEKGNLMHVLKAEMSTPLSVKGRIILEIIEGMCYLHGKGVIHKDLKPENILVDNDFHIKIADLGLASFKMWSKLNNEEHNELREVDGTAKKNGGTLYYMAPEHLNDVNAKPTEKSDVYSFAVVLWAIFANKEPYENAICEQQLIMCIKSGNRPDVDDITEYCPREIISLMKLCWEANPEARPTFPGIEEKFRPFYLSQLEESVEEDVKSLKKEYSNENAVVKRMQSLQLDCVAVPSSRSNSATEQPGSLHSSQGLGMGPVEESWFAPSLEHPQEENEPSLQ
row,Compound,Ki
1,"COCCN(CC(F)(F)F)C(=O)c1nc2n(n1)[C@H](c1ccccc1)C[C@@H]2F (racemic) [Example 55, rac-(5S,7S)-7-fluoro-N-(2-methoxyethyl)-5-phenyl-N-(2,2,2-trifluoroethyl)-6,7-dihydro-5H-pyrrolo[1,2-b][1,2,4]triazole-2-carboxamide]",3900 nM
2,"COCCN(CC(F)F)C(=O)c1nc2n(n1)[C@@H](c1ccccc1)C[C@H]2F (racemic) [Example 56, rac-(5R,7R)-N-(2,2-difluoroethyl)-7-fluoro-N-(2-methoxyethyl)-5-phenyl-6,7-dihydro-5H-pyrrolo[1,2-b[[1,2,4]triazole-2-carboxamide]",520 nM
3,"O=C(c1nc2n(n1)[C@H](c1ccccc1)C[C@@H]2F)N(CC(F)(F)F)C1COC1 (racemic) [Example 57, rac-(5S,7S)-7-fluoro-N-(oxetan-3-yl)-5-phenyl-N-(2,2,2-trifluoroethyl)-6,7-dihydro-5H-pyrrolo[1,2-b][1,2,4]triazole-2-carboxamide]",510 nM
4,"O=C(c1nc2n(n1)[C@H](c1ccccc1)C[C@@H]2F)N(CC(F)F)C1CC1 (racemic) [Example 58, rac-(5S,7S)-N-cyclopropyl-N-(2,2-difluoroethyl)-7-fluoro-5-phenyl-6,7-dihydro-5H-pyrrolo[1,2-b][1,2,4]triazole-2-carboxamide]",570 nM
5,"O=C(c1nc2n(n1)[C@H](c1ccccc1)C[C@@H]2F)N(CC(F)(F)F)C1CC1 (racemic) [Example 59, rac-(5S,7S)-N-cyclopropyl-7-fluoro-5-phenyl-N-(2,2,2-trifluoroethyl)-6,7-dihydro-5H-pyrrolo[1,2-b][1,2,4|]triazole-2-carboxamide]",2200 nM
6,"O=C(c1nc2n(n1)[C@H](c1ccccc1)C[C@@H]2F)N(C1CC1)C1CC1 (racemic) [Example 61, rac-(5S,7S)-N,N-dicyclopropyl-7-fluoro-5-phenyl-6,7-dihydro-5H-pyrrolo[1,2-b] [1,2,4]triazole-2-carboxamide]",3200 nM
7,"Cc1cc2n(n1)CCN(C(=O)c1nc3n(n1)[C@H](c1ccccc1)C[C@@H]3F)C2 (racemic) [Example 63, (2-methyl-6,7-dihydro-4H-pyrazolo[1,5-a]pyrazin-5-yl)-[rac-(5S,7S)-7-fluoro-5-phenyl-6,7-dihydro-5H-pyrrolo[1,2-b][1,2,4]triazol-2-yl]methanone]",2300 nM
8,"O=C(c1nc2n(n1)[C@@H](c1ccccc1)C[C@H]2F)N1CCC[C@H]1C(F)F (racemic) [Example 64, [rac-(2S)-2-(difluoromethyl)pyrrolidin-1-yl]-[rac-(5R,7R)-7-fluoro-5-phenyl-6,7-dihydro-5H-pyrrolo[1,2-b][1,2,4]triazol-2-yl]methanone]",4 nM
9,"O=C(c1nc2n(n1)[C@H](c1ccccc1)C[C@@H]2F)N1CCC[C@@H]1CO (racemic) [Example 71, [rac-(5S,7S)-7-fluoro-5-phenyl-6,7-dihydro-5H-pyrrolo[1,2-b][1,2,4]triazol-2-yl]-[rac-(2R)-2-(hydroxymethyl)pyrrolidin-1-yl]methanone]",690 nM
10,"O=C(c1nc2n(n1)[C@H](c1ccccc1)C[C@@H]2F)N1CC(F)(F)CC1CO (mixture of isomers) [Example 72, [4,4-difluoro-2-(hydroxymethyl)pyrrolodin-1-yl]-[rac-(5S,7S)-7-fluoro-5-phenyl-6,7-dihydro-5H-pyrrolo[1,2-b] [1,2,4]triazol-2-yl]methanone]",3900 nM
11,"O=C(c1nc2n(n1)[C@H](c1ccccc1)C[C@@H]2F)N1CCc2cnccc2C1 (racemic) [Example 75, 3.4-dihydro-1H-2,6-naphthyridin-2-yl-[rac-(5S,7S)-7-fluoro-5-phenyl-6,7-dihydro-5H-pyrrolo[1,2-b][1,2,4]triazol-2-yl]methanone]",290 nM
12,"O=C(c1nc2n(n1)[C@H](c1ccccc1)C[C@@H]2F)N1CCCC1C(F)F (mixture of isomers) [Example 78, [2-(difluoromethyl)pyrrolidin-1-yl]-[rac-(5S, 7S)-7-fluoro-5-phenyl-6,7-dihydro-5H-pyrrolo[1,2-b][1,2,4]triazol-2-yl]methanone]",60 nM
13,"O=C(c1nc2n(n1)[C@H](c1ccccc1)C[C@@H]2F)N1CCCC(F)(F)C1 (racemic) [Example 79, (3,3-difluoro-1-piperidyl)-[rac-(5S,7S)-7-fluoro-5-phenyl-6,7-dihydro-5H-pyrrolo[1,2-b][1,2,4]triazol-2-yl] methanone]",790 nM
14,"O=C(c1nc2n(n1)[C@H](c1ccccc1)C[C@@H]2F)N1CCC(C(F)(F)F)n2nccc21 (mixture of isomers) [Example 81, [rac-(5S,7S)-7-fluoro-5-phenyl-6,7-dihydro-5H-pyrrolo[1,2-b][1,2,4]triazol-2-yl]-[7-(trifluoromethyl)-6,7-dihydro-5H-pyrazolo [1,5-a]pyrimidin-4-yl]methanone]",250 nM
15,"O=C(c1nc2n(n1)[C@H](c1ccccc1)C[C@@H]2F)N1CCC[C@H]1C(F)(F)F (racemic) [Example 82, [rac-(5S,7S)-7-fluoro-5-phenyl-6,7-dihydro-5H-pyrrolo[1,2-b][1,2,4]triazol-2-yl]-[rac-(2S)-2-(trifluoromethyl)pyrrolidin-1-yl]methanone]",450 nM
16,"O=C(c1nc2n(n1)[C@H](c1ccccc1)C[C@@H]2F)N1CCC[C@@H]1C(F)(F)F (racemic) [Example 83, [rac-(5S,7S)-7-fluoro-5-phenyl-6,7-dihydro-5H-pyrrolo[1,2-b][1,2,4]triazol-2-yl]-[rac-(2R)-2-(trifluoromethyl)pyrrolidin-1-yl]methanone]",350 nM
17,"O=C(c1nc2n(n1)[C@H](c1ccccc1)C[C@@H]2F)N1CCCC1C(F)(F)F (mixture of isomers) [Example 84, [rac-(5S,7S)-7-fluoro-5-phenyl-6,7-dihydro-5H-pyrrolo[1,2-b][1,2,4]triazol-2-yl]-[2-(trifluoromethyl)pyrrolidin-1-yl]methanone]",300 nM
18,"C[C@H]1[C@H](C(F)(F)F)CCN1C(=O)c1nc2n(n1)[C@H](c1ccccc1)C[C@@H]2F (racemic) [Example 85, [rac-(5S,7S)-7-fluoro-5-phenyl-6,7-dihydro-5H-pyrrolo[1,2-b][1,2,4]triazol-2-yl]-[rac-(2S,3R)-2-methyl-3-(trifluoromethyl)pyrrolidin-1-yl]methanone]",330 nM

# Other lines, results leading:
row,Ki,Compound
1,9 nM,"O=C(c1nc2n(n1)[C@H](c1ccccc1)C[C@@H]2F)N1CC[C@@H]1C(F)F (racemic) [Example 53, [rac-(2R)-2-(difluoromethyl)azetidin-1-yl]-[rac-(5S,7S)-7-fluoro-5-phenyl-6,7-dihydro-5H-pyrrolo[1,2-b][1,2,4]triazol-2-yl]methanone]"
2,17 nM,"O=C(c1nc2n(n1)[C@H](c1ccccc1)C[C@@H]2F)N1CCC1C(F)F (mixture of isomers) [Example 60, [2-(difluoromethyl)azetidin-1-yl]-[rac-(5S,7S)-7-fluoro-5-phenyl-6,7-dihydro-5H-pyrrolo[1,2-b][1,2,4]triazol-2-yl]methanone]"
3,130 nM,"CC1CN(C(=O)c2nc3n(n2)[C@H](c2ccccc2)C[C@@H]3F)Cc2ccnn21 (mixture of isomers) [Example 62, (7-methyl-6,7-dihydro-4H-pyrazolo[1,5-a]pyrazin-5-yl)-[rac-(5S,7S)-7-fluoro-5-phenyl-6,7-dihydro-5H-pyrrolo[1,2-b][1,2,4]triazol-2-yl]methanone]"
4,49 nM,"O=C(c1nc2n(n1)[C@H](c1ccccc1)C[C@@H]2F)N1CCn2ccnc2C1 (racemic) [Example 68, 6,8-dihydro-5H-imidazo[1,2-a]pyrazin-7-yl-[rac-(5S,7S)-7-fluoro-5-phenyl-6,7-dihydro-5H-pyrrolo[1,2-b][1,2,4]triazol-2-yl]methanone]"
5,150 nM,"C[C@@H]1C[C@H](F)CN1C(=O)c1nc2n(n1)[C@H](c1ccccc1)C[C@@H]2F (racemic) [Example 70, [rac-(2R,4S)-4-fluoro-2-methyl-pyrrolidin-1-yl]-[rac-(5S,7S)-7-fluoro-5-phenyl-6,7-dihydro-5H-pyrrolo[1,2-b] [1,2,4]triazol-2-yl]methanone]"
6,82 nM,"O=C(c1nc2n(n1)[C@H](c1ccccc1)C[C@@H]2F)N1CC(F)(F)C[C@H]1CF (racemic) [Example 73, [rac-(2S)-4,4-difluoro-2-(fluoromethyl)pyrrolidin-1-yl]-[rac-(5S,7S)-7-fluoro-5-phenyl-6,7-dihydro-5H-pyrrolo[1,2-b] [1,2,4]triazol-2-yl]methanone]"
7,61 nM,"O=C(c1nc2n(n1)[C@H](c1ccccc1)C[C@@H]2F)N1CCC(Oc2ccccc2)C1 (mixture of isomers) [Example 77, (3-phenoxypyrrolidin-1-yl)-[rac-(5S,7S)-7-fluoro-5-phenyl-6,7-dihydro-5H-pyrrolo[1,2-b][1,2,4]triazol-2-yl]methanone]"
8,100 nM,"O=C(c1nc2n(n1)[C@H](c1ccccc1)C[C@@H]2F)N1CCCn2nccc21 (racemic) [Example 80, 6,7-dihydro-5H-pyrazolo[1,5-a]pyrimidin-4-yl-[rac-(5S,7S)-7-fluoro-5-phenyl-6,7-dihydro-5H-pyrrolo[1,2-b][1,2,4]triazol-2-yl]methanone]"
